Reference: patent US20110081325A1, “NOVEL TREATMENT OF HEART DISEASES” (Axiogenesis AG, priority 2008, published 2011)

What was measured:
[1] = tested on: in vitro differentiated cardiomyocytes; test: Cardiotoxic effect of doxorubicin on in vitro differentiated cardiomyocytes; type: cell-based, mouse; details: according to Example 4 of WO2005/005621, FIG. 4
Experimental: (§1) FIGS. 1-4: Effect of different vinca alkaloids (FIGS. 1-3) and doxorubicin (FIG. 4) on the viability and rate of survival of in vitro differentiated cardiomyocytes. EBs were generated and cardiac cells were differentiated as described in Example 1. Photomicrographs were taken before treatment and 48 and 72 hours after treatment. Fluorescent areas representing cardiac cells were measured and calculated as described in Example 2 and 3. Cor.At refers to in vitro differentiated cardiomyocytes and MEF to Mouse Embryonic Fibroblasts.
Thereafter, Example 2, supra, is modified in that doxorubin (doxorubicinhydrochlorid) together with vinblastin, vincristin or vinorelbin is added at different concentrations and reversed dilution series to the cell culture.

[2] = tested on: in vitro differentiated cardiomyocytes; test: Survival of in vitro differentiated cardiomyocytes in embryoid bodies (GFP fluorescent area); type: cell-based, mouse; details: ES cell-derived cardiomyocytes, after 72 hours, fluorescent area compared with before treatment
Experimental: as §1
The generation of “embryoid bodies” (EBs) from high density cell suspensions and differentiation of cardiac cells was essentially performed as described in Example 1 of international application WO2005/005621, the disclosure content of which is hereby incorporated by reference in its entirety. Briefly, mouse embryonic stem cells (ES cells, clone D3, ATCC CRL 1934) were stably transfected with the paMHC-GFP vector containing the gene of the green fluorescent protein under control of the cardiac α-myosin heavy chain (α-MHC) promotor. To obtain this vector, a 5.5 kb fragment containing the promoter region of the mouse α-myosin heavy chain gene (Genbank 471441) was introduced into the polylinker of the pEGFP-1 vector (Clontech Laboratories). […]
To generate EBs, ES cells were cultured in suspension at a density of 2×10^6 cells/ml in a 6 cm petri dish (Greiner, Darmstadt, Germany) in 4 ml IMDM with 20% FCS (Invitrogen, Karlsruhe, Germany) at 37° C., 5% CO2, 95% humidity on a rocking table (GFL 3006, GFL, Braunschweig, Germany) at 50 rpm for 6 hours. […] On day 14, fluorescent areas representing cardiac cells were detected by fluorescence microscopy using a Zeiss Axiovert 200M with a 10x Achroplan objective, a HQ-filterset for GFP (AF Analysentechnik, Tubingen, Germany) and a Sensicam 12 bit cooled imaging system (PCO Imaging, Kelheim, Germany). […]

SMILES	cardiotoxic effect on cardiomyocytes [1]	survival of in vitro differentiated cardiomyocytes [2]
COc1cccc2c1C(=O)c1c(O)c3c(c(O)c1C2=O)C[C@@](O)(C(=O)CO)C[C@@H]3O[C@H]1C[C@H](N)[C@H](O)[C@H](C)O1 [doxorubicin]	cardiotoxic effect	–
CC[C@]1(O)C[C@@H]2CN(CCc3c([nH]c4ccccc34)[C@@](C(=O)OC)(c3cc4c(cc3OC)N(C)[C@H]3[C@@](O)(C(=O)OC)[C@H](OC(C)=O)[C@]5(CC)C=CCN6CC[C@]43[C@@H]65)C2)C1 [vinblastin]	–	increase survival
CC[C@]1(O)C[C@H]2CN(CCc3c([nH]c4ccccc34)[C@@](C(=O)OC)(c3cc4c(cc3OC)N(C=O)[C@H]3[C@@](O)(C(=O)OC)[C@H](OC(C)=O)[C@]5(CC)C=CCN6CC[C@]43[C@@H]65)C2)C1 [vincristin]	–	increase survival
CCC1=C[C@@H]2CN(C1)Cc1c([nH]c3ccccc13)[C@@](C(=O)OC)(c1cc3c(cc1OC)N(C)[C@H]1[C@@](O)(C(=O)OC)[C@H](OC(C)=O)[C@]4(CC)C=CCN5CC[C@]31[C@@H]54)C2 [vinorelbin]	–	increase survival
